Source: ChEMBL document CHEMBL3046054, “Chemico-biological investigation of rhizome essential oil of Zingiber morannative to Northeast India” (Med Chem Res, 2013)
Values after ≈ are worked out from the molar mass of the structure shown. Active and inactive are the calls of the source. The calls are words filed in the database; no cut-off is given here.

Key:
[1] = system: HeLa; experiment: Induction of apoptosis in Homo sapiens (human) HeLa cells assessed as rounded cells at 10 to 100 ug/ml after 48 hr by light microscopic analysis; format: functional, cell-based
[2] = system: HeLa; experiment: Cytotoxicity against Homo sapiens (human) HeLa cells assessed as decrease in cell viability at 10 to 100 ug/ml after 24 hr by acridine orange/ethidium bromide-based inverted fluorescence microscopic analysis; format: functional
[3] = system: HeLa; experiment: Induction of apoptosis in Homo sapiens (human) HeLa cells assessed as detachment from substratum at <40 ug/ml after 24 hr by light microscopic analysis; format: functional, cell-based
[4] = system: HeLa; experiment: Induction of apoptosis in Homo sapiens (human) HeLa cells assessed as loss of cell to cell contact at <40 ug/ml after 24 hr by light microscopic analysis; format: functional, cell-based
[5] = system: HeLa; experiment: Induction of necrosis in Homo sapiens (human) HeLa cells assessed as chromatin flocculation at >50 ug/ml after 24 hr by light microscopic analysis; format: functional, cell-based
[6] = system: HeLa; experiment: Induction of necrosis in Homo sapiens (human) HeLa cells assessed as increase in nucleus volume at >50 ug/ml after 24 hr by light microscopic analysis; format: functional, cell-based
[7] = system: HeLa; experiment: Cytotoxicity against Homo sapiens (human) HeLa cells up to 3 days by MTT assay; format: functional, cell-based; conditions: for IC50: 72 h
[8] = system: HeLa; experiment: Induction of apoptosis in Homo sapiens (human) HeLa cells assessed as apoptotic bodies at <40 ug/ml after 24 hr by light microscopic analysis; format: functional, cell-based
[9] = system: HeLa; experiment: Induction of necrosis in Homo sapiens (human) HeLa cells assessed as dissolution of cytoplasmic membrane at >50 ug/ml after 24 hr by light microscopic analysis; format: functional, cell-based
[10] = system: HeLa; experiment: Induction of necrosis in Homo sapiens (human) HeLa cells assessed as dissolution of nuclear membrane at >50 ug/ml after 24 hr by light microscopic analysis; format: functional, cell-based
[11] = system: HeLa; experiment: Growth inhibition of Homo sapiens (human) HeLa cells at 10 to 30 ug/ml up to 3 days by MTT assay; format: functional
[12] = system: HeLa; experiment: Induction of apoptosis in Homo sapiens (human) HeLa cells assessed as rounded cells at 10 to 50 ug/ml after 24 hr by light microscopic analysis; format: functional, cell-based
[13] = system: HeLa; experiment: Induction of apoptosis in Homo sapiens (human) HeLa cells assessed as floating cells at 10 to 50 ug/ml after 24 hr by light microscopic analysis; format: functional, cell-based
[14] = system: HeLa; experiment: Induction of apoptosis in Homo sapiens (human) HeLa cells assessed as fragmented nuclei at 10 to 100 ug/ml after 24 hr by acridine orange/ethidium bromide-based inverted fluorescence microscopic analysis; format: functional, cell-based
[15] = system: HeLa; experiment: Induction of necrosis in Homo sapiens (human) HeLa cells assessed as increase in cytoplasmic volume at >50 ug/ml after 24 hr by light microscopic analysis; format: functional, cell-based
[16] = system: HeLa; experiment: Induction of apoptosis in Homo sapiens (human) HeLa cells assessed as membrane blebbing at <40 ug/ml after 24 hr by light microscopic analysis; format: functional, cell-based
[17] = system: HeLa; experiment: Cytotoxicity against Homo sapiens (human) HeLa cells assessed as cell death at 10 to 100 ug/ml after 48 hr by light microscopic analysis; format: functional, cell-based
[18] = system: HeLa; experiment: Induction of necrosis in Homo sapiens (human) HeLa cells assessed as increase in cytoplasmic vacuolization at >50 ug/ml after 24 hr by light microscopic analysis; format: functional, cell-based
[19] = system: HeLa; experiment: Induction of apoptosis in Homo sapiens (human) HeLa cells assessed as apoptotic bodies at <55 ug/ml after 24 hr by light microscopic analysis; format: functional, cell-based
[20] = system: HeLa; experiment: Induction of apoptosis in Homo sapiens (human) HeLa cells assessed as loss of cell to cell contact at <55 ug/ml after 24 hr by light microscopic analysis; format: functional, cell-based
[21] = system: HeLa; experiment: Induction of apoptosis in Homo sapiens (human) HeLa cells assessed as membrane blebbing at <55 ug/ml after 24 hr by light microscopic analysis; format: functional, cell-based
[22] = system: HeLa; experiment: Induction of apoptosis in Homo sapiens (human) HeLa cells assessed as detachment from substratum at <55 ug/ml after 24 hr by light microscopic analysis; format: functional, cell-based

Compound	Activity [1]	Activity [2]	Activity [3]	Activity [4]	Activity [5]	Activity [6]	Activity [7]	IC50 [7] [µg/mL]	Activity [8]	Activity [9]	Activity [10]	growth inhibition (GI) [11] [%]	Activity [12]	Activity [13]	Activity [14]	Activity [15]	Activity [16]	Activity [17]	Activity [18]	other results
CC(C)=CCCC(C)=CC=O	Active	Active	Active	Active	Active	Active	Dose-dependent effect	39.6 (≈ 260 µM)	Active	Active	Active	60	Active	Active	Active	Active	Active	Active	Active	
C=CC(C)(O)CCC=C(C)C (configuration not stated) [LINALOOL]	Active	Active			Active	Active	Dose-dependent effect	55.4 (≈ 359 µM)		Active	Active	60	Active	Active	Active	Active		Active	Active	Activity [19]: Active; Activity [20]: Active; Activity [21]: Active; Activity [22]: Active
C=C1C2CCC(C2)C1(C)C (configuration not stated) [CAMPHENE]	Active	Active	Active	Active	Active	Active	Dose-dependent effect	38.5 (≈ 283 µM)	Active	Active	Active	60	Active	Active	Active	Active	Active	Active	Active	
